Experiment [1] concerns the target HSV-1 thymidine kinase mutant TKF 105 (Leu-170 to Ile) (Human herpesvirus 1, UniProt P06478, L170I). Put plainly: Kinetics of AZT phosphorylation by purified TK (preliminary experiments). The note with it: preliminary experiments with purified TKF 105 TK. Type of experiment: biochemical, Herpes Simplex Virus Type 1. Here is the method: Briefly, crude bacterial extract was passed three times through a 7-mL bed-volume affinity column. The column was then washed sequentially using 30 mL each of buffer A [0.1 M Tris HCl, pH 7.5/5 mM dithiothreitol (DTT)/10% glycerol], buffer B (0.1M Tris-HCl, pH 7.5/0.5 M KCl/5 mM DTT/10% glycerol), and buffer A. TK was eluted using a 60-mL linear gradient of 0-600 µM dT in buffer C (0.3 M Tris HCl, pH 7.4/50 mM KCl/10% glycerol). Active fractions were pooled and dialyzed against three changes each of 2 liters of 50 mM Tris-HCl, pH 7.4/5 mM DTT/10% glycerol. Except in the final dialysis, all the above buffers contained 50 µg/mL of aprotinin and 2 µg/mL each of pepstatin and leupeptin.
Secondly, the kinetics of AZT phosphorylation by the two mutants was determined. Briefly, reactions were carried out in a final volume of 100 µl containing 50 mM Tris-HCl (pH 7.5), 5 mM ATP. […] The amount of radioactivity adsorbed to the disc was determined by scintillation spectroscopy. Km and Vmax values were determined by using the Cleland SUBIN program (Cleland, Methods Enz. 63:103-138, 1979). The values for kcat were calculated using the equation Vmax = kcat[E]0, where [E]o = total enzyme concentration. […]

Experiment [2] relates to E. coli KY895 harboring HSV-1 TK mutant TKF 105 (Leu-170 to Ile). Put plainly: Negative selection on AZT-selection medium. Type of experiment: cell-based. The note with it: 0.05 µg/mL of AZT, 1.0 µg/mL of dT. An excerpt: (§1) This screen is based upon the premise that mutants with increased ability to phosphorylate AZT relative to dT would be unable to form colonies on the AZT-selection medium. In particular, the product, AZT monophosphate would be further phosphorylated by the host cell's nonspecific nucleotide kinases, or possibly by the mutant TK, incorporated into bacterial DNA by host DNA polymerases, terminate DNA synthesis, and thus prevent replication of the host chromosome.
(§2) Briefly, the TK mutants were first grown as individual colonies on TK-selection medium (1.0 µg/mL of dT), and then replica plated onto AZT-selection medium (0.05 µg/mL of AZT, 1.0 µg/mL of dT). All other components in the AZT-selection medium were the same as the TK-selection medium.

Experiment [3] deals with E. coli KY895 harboring HSV-1 TK mutant TKI 208 (Leu-170 to Val). Put plainly: Negative selection on AZT-selection medium. Type of experiment: cell-based. The settings on record: 0.05 µg/mL of AZT, 1.0 µg/mL of dT.
From the text: as §1, §2

In experiment [4] the test system is BHK tk- cells transfected with pREP8D7:dualGFP expressing TK mutant 75. Put plainly: ACV kill curves of transfectant pools. Type of experiment: cell-based, baby hamster. The note with it: Mesocricetus auratus, Table VII. From the text:
(§3) The seven mutants were subcloned into the mammalian expression vector, pREP8D7:dualGFP. This vector contains a constitutive metallothionin promoter, which drives the expression of green flourescent protein (GFP), and an RSV LTR promoter, which stimulated expression of the TK mutants. The vector also contains a histidinol resistance gene for selection of transformants. Purified vector DNA of these constructs was used to transfect BHK tk- cells by electroporation. The transfectants were selected by resistance to histidinol and sorted using FACS analysis for GFP expression. Pools of transfectants were then assayed for sensitivity to GCV or ACV over a range of prodrug doses. […] Table VIII illustrates the IC50 values from Rat C6 kill curves with the SR11, SR26, and SR39 mutants.

Experiment [5] concerns BHK tk- cells transfected with pREP8D7:dualGFP expressing TK mutant SR11. Put plainly: ACV kill curves of transfectant pools. Format: cell-based, baby hamster. The note with it: Mesocricetus auratus, Table VII.
From the text: as §3

The subject of experiment [6] is Rat C6 cells expressing TK mutant 30. Put plainly: Rat C6 kill curves with GCV and ACV. Format: cell-based. The note with it: Table VIII.
From the text: as §3

Experiment [7] concerns Rat C6 cells expressing TK mutant 411. Put plainly: Rat C6 kill curves with GCV and ACV. Format: cell-based. The note with it: Table VIII.
From the text: as §3

Experiment [8] deals with Rat C6 cells expressing TK mutant 75. Put plainly: Rat C6 kill curves with GCV and ACV. The settings on record: Table VIII. Format: cell-based.
From the text: as §3

For experiment [9], the system named is Rat C6 cells expressing TK mutant SR11. Put plainly: Rat C6 kill curves with GCV and ACV. Type of experiment: cell-based. The note with it: Table VIII.
From the text: as §3

The test system of experiment [10] is Rat C6 cells expressing TK mutant SR26. Put plainly: Rat C6 kill curves with GCV and ACV. Format: cell-based. The note with it: Table VIII.
From the text: as §3

The subject of experiment [11] is Rat C6 cells expressing TK mutant SR39. Put plainly: Rat C6 kill curves with GCV and ACV. Format: cell-based. The note with it: Table VIII.
From the text: as §3

Experiment [12] has as its system Rat C6 cells expressing wild-type TK. Put plainly: Rat C6 kill curves with GCV and ACV. Type of experiment: cell-based. The settings on record: Table VIII.
From the text: as §3

Experiment [13] concerns the target T1, HSV-1 thymidine kinase mutant 75 (LIF-ALL library, codons 159-161 and 168-170 randomized; pET23d:75) (Human herpesvirus 1, UniProt P0DTH5).
T1 sequence (P0DTH5 1-376): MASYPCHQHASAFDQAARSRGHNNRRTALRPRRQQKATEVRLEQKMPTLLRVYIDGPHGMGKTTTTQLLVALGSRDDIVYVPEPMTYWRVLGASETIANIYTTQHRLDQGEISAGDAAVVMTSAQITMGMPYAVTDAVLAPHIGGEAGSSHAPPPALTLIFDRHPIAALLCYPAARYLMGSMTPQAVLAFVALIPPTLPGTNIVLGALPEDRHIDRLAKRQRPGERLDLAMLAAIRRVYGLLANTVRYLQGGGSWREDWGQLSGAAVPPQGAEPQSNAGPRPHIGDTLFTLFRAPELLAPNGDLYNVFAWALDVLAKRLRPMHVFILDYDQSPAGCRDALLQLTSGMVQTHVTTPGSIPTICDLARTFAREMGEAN
The settings on record: Table V.
Protocol: The culture is incubated at 37°C overnight. The following day the 5ml culture is used to inoculate 1L M9ZB + cabenicillin at 20µg/ml and the culture allowed to grow at 37°C to OD600 0.1. At that point IPTG is added to 0.4mM and the culture incubated a further 3 hours. The cells are chilled on ice, pelleted by centrifugation and the pellets washed once in cell wash buffer (50mM Tris, pH 7.5, 5mM EDTA, 10% sucrose) prior to freezing the pellets at -70°C. The next day the cells are resuspended in 12ml Buffer 1 (50mM Tris, pH 7.5, 10% sucrose, 2mM DTT, 5mM EDTA, 1mM PMSF) and the volume split into two 13ml Oakridge ultracentrifuge tubes. 1ml Buffer 1 containing 3mg lysozyme is added to each tube and the tubes left on ice for 1 hr. […] The cleared supernatant is then aliquoted and frozen at -70°C.
The 1ml bed volume column is prepared by passing 10ml Buffer 1 followed by 10ml Absorption Buffer (50mM Tris, pH 7.5, 10% sucrose, 2mM DTT, 25mM MgAc2, 10mM ATP) over the column. Two ml of the cleared lysate is mixed with 2 ml of Absorption Buffer and passed through a 0.2µm filter. This mix is passed over the column 3 times. The column is washed with 5ml Absorption buffer three times and the 5ml fractions collected. […] The column is reactivated by loading on 10ml High Salt Buffer (50mM Tris, pH 7.5, 10% sucrose, 2mM DTT, 0.5M KCl) and 10ml 50mM Tris, pH 7.5. The column is stored in 50mM Tris pH 7.5 + 0.004% sodium azide. The extent of purification is monitored by Coomassie stained SDS:PAGE analysis and the concentration of purified protein determined using the BioRad Reagent (Bradford Reagent).
Km and Vmax values are determined from double reciprocal plots and kcat values are calculated using the equation Vmax = kcat [Eo] where [Eo] is the total enzyme concentration. The BioRad reagent was used to determine the total enzyme concentration of purified thymidine kinase enzymes.

Chain of HSV-1 thymidine kinase mutant TKF 105 (Leu-170 to Ile) (P06478 whole entry L170I): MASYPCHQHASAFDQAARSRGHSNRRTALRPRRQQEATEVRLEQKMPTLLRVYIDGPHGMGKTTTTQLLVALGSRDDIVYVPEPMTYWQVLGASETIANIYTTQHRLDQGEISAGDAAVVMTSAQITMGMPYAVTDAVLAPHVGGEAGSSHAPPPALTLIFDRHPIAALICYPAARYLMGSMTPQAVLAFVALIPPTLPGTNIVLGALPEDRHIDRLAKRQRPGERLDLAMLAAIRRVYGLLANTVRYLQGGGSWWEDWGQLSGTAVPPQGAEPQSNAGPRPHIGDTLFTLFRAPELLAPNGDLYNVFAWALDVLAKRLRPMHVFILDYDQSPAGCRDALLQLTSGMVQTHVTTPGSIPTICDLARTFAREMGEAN

In the case of `Cc1cn([C@H]2C[C@H](N=[N+]=[N-])[C@@H](CO)O2)c(=O)[nH]c1=O` [AZT, 3' azido-3' thymidine], the Km in experiment [1] came to 3.7 µM. In addition, the “colony formation on AZT-selection medium” value in experiment [2] and in experiment [3] was “not on the AZT-selection medium” in each case.
On to `Nc1nc2c(ncn2COCCO)c(=O)[nH]1` [acyclovir], for which the IC50 is 0.06 µM in [4]; 0.025 µM in experiment [5]; 0.26 µM in experiment [6]; 14 µM in [7]; greater than 20 µM in experiment [8]; 6 µM in experiment [9]. In addition, the 50% inhibitory concentration (IC50) is 0.76 µM in experiment [10], 0.11 µM in experiment [11] and greater than 20 µM in experiment [12]. Also, the Km in [13] (double reciprocal plots) was 23 µM. Further, the kcat result in experiment [13] (per active site) is “.010 s⁻¹”.

Source of the values: patent EP1914304A1 (priority 1998, dated 1999).
